What was measured:
IL-1β = IL-1β inhibition assay, LPS-induced PBMCs or CD14+ monocytes, Meso Scale; type: cell-based; settings: 100 ng/mL LPS 18-24 h
Method: (§1) Either frozen primary blood mononuclear cells (PBMCs) or frozen CD14+ mobilized peripheral blood monocytes were purchased from AllCells (PB003F, Normal Peripheral Blood MNC (Alameda, Calif.)). Cells were quick thawed, washed 1-time with RPMI-1640 (10% FBS/1% Pen-Strep) and plated in 96 well plates at 200,000 cells per well. Cells were pretreated with DMSO only or with the indicated compound for 1 h and then induced with 100 ng/mL lipopolysaccharide (LPS) for 18-24 h. The supernatant was analyzed for IL-1β, IL-6, and TNFα, using Meso Scale assay according to manufacturer's protocol. The negative control wells were treated with DMSO.

GSPT1 = target: T1, GSPT1 (Homo sapiens, UniProt P15170+Q96SW2); experiment: Western blot GSPT1 degradation assay in MV-4-11 cells; type: cell-based; settings: 1 μM, MV-4-11 cells, 6-8 hours
T1 construct: whole cell protein extracts were separated on 4-12% SDS-polyacrylamide gels; endogenous in cells; host or cells: MV-4-11
T1 sequence (P15170 whole entry): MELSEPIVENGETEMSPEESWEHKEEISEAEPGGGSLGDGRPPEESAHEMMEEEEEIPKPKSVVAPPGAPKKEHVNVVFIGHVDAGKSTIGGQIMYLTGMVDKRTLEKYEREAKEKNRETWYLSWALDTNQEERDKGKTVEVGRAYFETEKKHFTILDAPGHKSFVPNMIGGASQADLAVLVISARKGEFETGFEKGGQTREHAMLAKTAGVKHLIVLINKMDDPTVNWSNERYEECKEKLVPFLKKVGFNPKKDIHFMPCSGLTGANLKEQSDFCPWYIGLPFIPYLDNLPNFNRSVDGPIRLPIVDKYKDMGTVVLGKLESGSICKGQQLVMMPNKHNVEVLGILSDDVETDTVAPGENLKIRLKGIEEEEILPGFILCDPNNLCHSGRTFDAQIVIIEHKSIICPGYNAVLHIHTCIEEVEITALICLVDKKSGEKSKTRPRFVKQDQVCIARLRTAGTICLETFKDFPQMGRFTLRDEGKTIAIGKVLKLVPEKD
T1 sequence (Q96SW2 whole entry): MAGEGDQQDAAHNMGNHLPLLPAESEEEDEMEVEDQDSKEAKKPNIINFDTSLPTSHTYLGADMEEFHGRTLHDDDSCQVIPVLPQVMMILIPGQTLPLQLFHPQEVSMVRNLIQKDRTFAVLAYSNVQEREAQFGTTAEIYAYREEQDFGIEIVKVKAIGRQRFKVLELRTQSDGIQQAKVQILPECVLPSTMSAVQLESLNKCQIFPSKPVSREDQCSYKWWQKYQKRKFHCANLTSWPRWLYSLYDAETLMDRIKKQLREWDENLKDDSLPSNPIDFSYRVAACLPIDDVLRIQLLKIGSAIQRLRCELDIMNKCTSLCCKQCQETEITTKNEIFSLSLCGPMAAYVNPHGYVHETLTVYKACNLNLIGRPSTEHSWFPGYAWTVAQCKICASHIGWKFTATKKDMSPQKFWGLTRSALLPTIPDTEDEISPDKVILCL
T1 sequence (Q16531 whole entry partner): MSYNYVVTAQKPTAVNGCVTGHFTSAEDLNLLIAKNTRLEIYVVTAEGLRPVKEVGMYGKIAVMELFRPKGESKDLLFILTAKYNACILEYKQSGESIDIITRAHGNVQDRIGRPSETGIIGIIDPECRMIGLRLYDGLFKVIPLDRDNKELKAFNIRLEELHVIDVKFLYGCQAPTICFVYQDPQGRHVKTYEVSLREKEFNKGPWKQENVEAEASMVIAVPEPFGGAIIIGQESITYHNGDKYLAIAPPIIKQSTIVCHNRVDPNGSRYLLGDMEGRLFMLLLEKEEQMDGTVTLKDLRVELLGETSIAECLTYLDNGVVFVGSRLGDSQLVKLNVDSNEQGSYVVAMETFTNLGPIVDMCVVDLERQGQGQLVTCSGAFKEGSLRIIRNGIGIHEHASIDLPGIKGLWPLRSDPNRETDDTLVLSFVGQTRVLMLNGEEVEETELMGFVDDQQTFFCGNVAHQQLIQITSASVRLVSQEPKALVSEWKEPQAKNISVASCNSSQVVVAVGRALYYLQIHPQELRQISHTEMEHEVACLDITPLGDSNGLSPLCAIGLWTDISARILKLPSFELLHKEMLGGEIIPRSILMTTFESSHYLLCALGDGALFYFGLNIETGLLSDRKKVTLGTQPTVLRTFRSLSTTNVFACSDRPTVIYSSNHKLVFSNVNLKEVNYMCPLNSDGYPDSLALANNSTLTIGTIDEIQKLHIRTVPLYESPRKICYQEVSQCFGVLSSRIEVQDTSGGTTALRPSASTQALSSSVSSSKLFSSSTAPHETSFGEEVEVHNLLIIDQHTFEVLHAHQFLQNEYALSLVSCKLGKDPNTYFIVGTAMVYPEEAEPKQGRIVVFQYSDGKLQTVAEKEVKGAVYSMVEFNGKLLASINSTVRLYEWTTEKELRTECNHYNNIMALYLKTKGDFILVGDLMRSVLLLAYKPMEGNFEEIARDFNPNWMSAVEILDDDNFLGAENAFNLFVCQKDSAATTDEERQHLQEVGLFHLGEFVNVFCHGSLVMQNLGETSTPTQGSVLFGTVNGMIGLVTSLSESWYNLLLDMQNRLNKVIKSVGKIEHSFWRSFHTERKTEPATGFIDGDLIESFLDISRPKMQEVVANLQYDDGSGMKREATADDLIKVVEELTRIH
Method: (§2) MV-4-11 cells were grown in RPMI 1640 media supplemented with 10% fetal bovine serum, streptomycin and penicillin.
(§3) Cells were cultured at approximately 10^6 cells per mL and incubated in DMSO or the indicated compound for 6-8 hours. Whole cell extracts were prepared using RIPA buffer according to manufacturer's protocol (Pierce). Briefly, 3×10^6 cells were washed once in PBS, the cell pellets were resuspended in RIPA buffer and allowed to incubate for 15 minutes on ice. Cells debris was removed by centrifugation and the cleared whole cell lysates were transferred to new tubes for further analysis.
(§4) For Western blot analysis, whole cell protein extracts were separated on 4-12% SDS-polyacrylamide gels, transferred to nitrocellulose and probed with the indicated primary antibodies. Membranes were subsequently washed and probed with the appropriate IRDye secondary antibodies (LI-COR). The signal was detected using the Odyssey Imaging System (LI-COR).
(§5) The following antibodies were used in these studies: Anti-eRF3/GSPT1: Abcam, ab126090 (Cambridge, Mass.); Anti-Ikaros: Abcam, ab191394 (Cambridge, Mass.); Anti-CK1α: Abcam, ab108296 (Cambridge, Mass.); β-actin (8H10D10) mouse monoclonal antibody: Cell Signaling Technology, #3700 (Danvers, Mass.); IRDye 680RD Goat anti-rabbit antibody: LI-COR, 926-68071 (Lincoln, Nebr.); IRDye 800CW Goat anti-mouse antibody: LI-COR, 926-32210 (Lincoln, Nebr.).
(§6) In each of Tables 1-3, the % degradation values are reported as “A”, “B”, “C”, or “D.” “A” represents a % degradation value of less than 25% (value<25%); “B” represents a % degradation value of equal to or more than 25% and less than 50% (25%≤value<50%); “C” represents a % degradation value of equal to or more than 50% and less than 75% (50%≤value<75%); and “D” represents a % degradation value of equal to or more than 75% (value≥75%).

IL-2 = IL-2 fold-change assay, anti-CD3 stimulated PBMCs, Mesoscale; type: cell-based; settings: Homo sapiens, PBMC, 24 h, fold difference from the DMSO control
Method: For the IL-2 analysis, 96 well plates were precoated with 1 μg/mL anti-human CD3 antibody (OKT3, eBioscience Inc., San Diego, Calif.). After washing with PBS, the indicated compound was added (50 μL/well) followed by PBMCs diluted at 3-4 million cells/mL (150 μL/well). Plates were incubated for 24 h and the supernatants collected for Mesoscale IL-2 analysis. IL-2 activity is measured as fold difference from the DMSO control.
In Table 7, the fold-change values are reported as “A”, “B”, “C”, or “D”. “A” represents a fold-change value of equal to or less than 1 (value≤1); “B” represents a fold-change value of more than 1 and equal to or less than 2 (1<value≤2); “C” represents a fold-change value of more than 2 and equal to or less than 3 (2<value≤3); and “D” represents a fold-change value of more than 3 (value>3).

CK1α = target: T2, CK1α (Homo sapiens, UniProt P48729+Q96SW2); experiment: Western blot CK1α degradation assay in MV-4-11 cells; type: cell-based; settings: 6-8 hours
T2 construct: endogenous in cells; host or cells: MV-4-11
T2 sequence (P48729 whole entry): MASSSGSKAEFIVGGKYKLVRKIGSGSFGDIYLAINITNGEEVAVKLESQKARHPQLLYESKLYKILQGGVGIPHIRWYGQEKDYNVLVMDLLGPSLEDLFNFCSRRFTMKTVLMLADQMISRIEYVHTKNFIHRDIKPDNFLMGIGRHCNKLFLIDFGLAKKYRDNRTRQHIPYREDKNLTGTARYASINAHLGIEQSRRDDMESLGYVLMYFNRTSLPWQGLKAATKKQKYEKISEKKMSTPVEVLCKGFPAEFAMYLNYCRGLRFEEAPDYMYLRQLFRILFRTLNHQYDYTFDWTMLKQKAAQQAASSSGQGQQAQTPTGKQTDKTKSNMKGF
T2 sequence (Q96SW2 whole entry): as the sequence (Q96SW2 whole entry) above
T2 sequence (Q16531 whole entry partner): as the sequence (Q16531 whole entry partner) above
Method: as §2, §3, §4, §5, §6

TNFα = experiment: TNF-α inhibition assay, LPS-induced PBMCs or CD14+ monocytes, Meso Scale; type: cell-based; settings: 100 ng/mL LPS 18-24 h
Method: as §1

THLE-2 cells = experiment: Comparative study cell viability, THLE-2 cells (CTG2, 3 days); type: cell-based, human; settings: relative to Compound 1
Method: (§7) Molm-13 and MV-4-11 cells (both leukemia cell lines) were cultured in RPMI 1640 media supplemented with 10% fetal bovine serum, streptomycin and penicillin, and were plated in white walled 96-well plates at 20,000 cells/well. THLE-2 cells (T-antigen immortalized human liver epithelial cells) were cultured using BEGM Bullet kit (Lonza CC-3170) supplemented with 10% fetal bovine serum, streptomycin and penicillin, and were plated in white walled 96-well plates 5000 cells/well. NHLF (normal human lung fibroblast) cells were cultured in DMEM media supplemented with 10% fetal bovine serum, streptomycin and penicillin, and were plated in white walled 96-well plates at 5000 cells/well. Cells were incubated in DMSO (control) or the indicated compounds for 3 days at 37° C. and 5% CO2. Following the incubation period, 100 μL of CellTiterGlow2 (CTG2) reagent (CellTiter-Glo®2 Luminescent Cell Viability Assay, Promega (Madison, Wis.)) was added to each well. Following a 10 minutes incubation with shaking, luminescence was measured using the Victor Wallac Luminometer or the Envision 2105 multimode plate reader.

MV-4-11 cells = experiment: Comparative study cell viability, MV-4-11 cells (CTG2, 3 days); type: cell-based; settings: relative to Compound 1
Method: as §7

MOLM-13 cells = experiment: MOLM-13 cell viability assay (CellTiter-Glo 2, 3 days, 2500 cells/well); type: cell-based; settings: Homo sapiens, MOLM-13, 72 h, percentage of DMSO control
Method: MOLM-13 cells were cultured in RPMI 1640 media supplemented with 10% fetal bovine serum, streptomycin and penicillin, and were plated in white walled 96-well plates at 2500 cells/well. Cells were incubated in DMSO (control) or the indicated compound for 3 days at 37° C. and 5% CO2. Following the incubation period, 100 μL of CellTiterGlow2 (CTG2) reagent (CellTiter-Glo®2 Luminescent Cell Viability Assay, Promega (Madison, Wis.)) was added to each well. Following a 10 minutes incubation with shaking, luminescence was measured using the EnVision Multimode plate reader.
The MOLM-13 cell viability values, measured as percentages of the DMSO control, are reported in Table 8 as “A”, “B”, “C”, or “D.” “A” represents a % viability value of less than 40% (value<40%). “B” represents a % viability value of equal to or more than 40% and less than 60% (40%≤value<60%). “C” represents a % viability value of equal to or more than 60% and less than 90% (60%≤value<90%). “D” represents a % viability value of equal or more than 90% (value≥90%).

IKAROS = target: T3, IKAROS (Homo sapiens, UniProt Q13422+Q96SW2); experiment: Western blot IKAROS degradation assay in MV-4-11 cells; type: cell-based; settings: 6-8 hours
T3 construct: endogenous in cells; host or cells: MV-4-11
T3 sequence (Q13422 whole entry): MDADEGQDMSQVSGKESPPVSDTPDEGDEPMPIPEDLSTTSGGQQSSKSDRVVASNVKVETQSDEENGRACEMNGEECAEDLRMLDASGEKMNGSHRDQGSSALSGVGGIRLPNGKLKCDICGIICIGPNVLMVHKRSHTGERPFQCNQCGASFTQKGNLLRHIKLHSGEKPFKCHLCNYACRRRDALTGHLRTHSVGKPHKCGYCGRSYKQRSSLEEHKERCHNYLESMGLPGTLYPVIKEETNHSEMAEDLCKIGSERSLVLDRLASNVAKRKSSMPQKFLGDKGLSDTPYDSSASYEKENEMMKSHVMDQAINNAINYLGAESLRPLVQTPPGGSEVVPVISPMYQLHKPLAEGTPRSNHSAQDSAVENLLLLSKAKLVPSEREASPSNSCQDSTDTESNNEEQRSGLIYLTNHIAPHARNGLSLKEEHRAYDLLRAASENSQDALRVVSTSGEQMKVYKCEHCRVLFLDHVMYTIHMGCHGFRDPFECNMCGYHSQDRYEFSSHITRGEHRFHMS
T3 sequence (Q96SW2 whole entry): as the sequence (Q96SW2 whole entry) above
T3 sequence (Q16531 whole entry partner): as the sequence (Q16531 whole entry partner) above
Method: as §2, §3, §4, §5, §6

Row | IC50 concentration as fold of the IC50 concentration of Compound 1 (MV-4-11 cells) | SMILES | inhibition at 1 µM (IL-1β) [%] | GSPT1 % Degradation at 1 μM (GSPT1) | fold induction at 1 µM (IL-2) | CK1α % Degradation at 1 μM (CK1α) | inhibition at 1 µM (TNFα) [%] | IC50 concentration as fold of the IC50 concentration of Compound 1 (THLE-2 cells) | viability at 1 µM (MOLM-13 cells) [%] | IKAROS % Degradation at 1 μM (IKAROS)
1 |  | Cc1cc(NCC(=O)NCc2ccc3c(c2)CN(C2CCC(=O)NC2=O)C3=O)ccc1N(C)C (stereo not shown) [Compound 25, 2-((4-(dimethylamino)-3-methylphenyl)amino)-N-((2-(2,6-dioxopiperidin-3-yl)-1-oxoisoindolin-5-yl)methyl)acetamide] | < 30 | C (a % degradation value of equal to or more than 50% and less than 75% (50%≤value<75%)) | 1 to 2 | B (a % degradation value of equal to or more than 25% and less than 50% (25%≤value<50%)) | 30 to 50 |  |  | 
2 | over 2 fold | O=C(CNc1ccccc1)NCc1ccc2c(c1)CN(C1CCC(=O)NC1=O)C2=O (stereo not shown) [Compound 16, N-((2-(2,6-dioxopiperidin-3-yl)-1-oxoisoindolin-5-yl)methyl)-2-(phenylamino)acetamide] |  | B (a % degradation value of equal to or more than 25% and less than 50% (25%≤value<50%)) |  |  |  | over 3 fold | 60 to 90 | 
3 |  | Cc1ccc(NCC(=O)NCc2csc3c2CN(C2CCC(=O)NC2=O)C3=O)cc1Cl (stereo not shown) [Compound 5, 2-((3-chloro-4-methylphenyl)amino)-N-((5-(2,6-dioxopiperidin-3-yl)-6-oxo-5,6-dihydro-4H-thieno[2,3-c]pyrrol-3-yl)methyl)acetamide] | > 75 |  | > 3 | D (a % degradation value of equal to or more than 75% (value≥75%)) | > 75 |  | < 40 | D (a % degradation value of equal to or more than 75% (value≥75%))
4 |  | Cc1ccc(NCC(=O)NCc2ccc3c(c2)CN(C2CCC(=O)NC2=O)C3=O)cc1N1CCCC1 (stereo not shown) [Compound 24, N-((2-(2,6-dioxopiperidin-3-yl)-1-oxoisoindolin-5-yl)methyl)-2-((4-methyl-3-(pyrrolidin-1-yl)phenyl)amino)acetamide] |  | D (a % degradation value of equal to or more than 75% (value≥75%)) |  | B (a % degradation value of equal to or more than 25% and less than 50% (25%≤value<50%)) |  |  | > 90 | D (a % degradation value of equal to or more than 75% (value≥75%))
5 |  | Cc1cc(NCC(=O)NCc2scc3c2CN(C2CCC(=O)NC2=O)C3=O)ccc1N(C)C (stereo not shown) [Compound 10, 2-((4-(dimethylamino)-3-methylphenyl)amino)-N-((5-(2,6-dioxopiperidin-3-yl)-4-oxo-5,6-dihydro-4H-thieno[3,4-c]pyrrol-1-yl)methyl)acetamide] |  | D (a % degradation value of equal to or more than 75% (value≥75%)) |  | B (a % degradation value of equal to or more than 25% and less than 50% (25%≤value<50%)) |  |  | > 90 | A (a % degradation value of less than 25% (value<25%))
6 |  | Cc1ccc(NCC(=O)NCc2ccc3c(c2)CN(C2CCC(=O)NC2=O)C3=O)nc1Cl (stereo not shown) [Compound 20, 2-((6-chloro-5-methylpyridin-2-yl)amino)-N-((2-(2,6-dioxopiperidin-3-yl)-1-oxoisoindolin-5-yl)methyl)acetamide] | < 30 | B (a % degradation value of equal to or more than 25% and less than 50% (25%≤value<50%)) |  | B (a % degradation value of equal to or more than 25% and less than 50% (25%≤value<50%)) | 30 to 50 |  | > 90 | B (a % degradation value of equal to or more than 25% and less than 50% (25%≤value<50%))
7 |  | Cc1ccc(NCC(=O)NCc2cccc3c2CN(C2CCC(=O)NC2=O)C3=O)cc1Cl (stereo not shown) [Compound 14, 2-((3-chloro-4-methylphenyl)amino)-N-((2-(2,6-dioxopiperidin-3-yl)-1-oxoisoindolin-4-yl)methyl)acetamide] | > 75 | C (a % degradation value of equal to or more than 50% and less than 75% (50%≤value<75%)) | 2 to 3 | C (a % degradation value of equal to or more than 50% and less than 75% (50%≤value<75%)) | 50 to 75 |  | 40 to 60 | D (a % degradation value of equal to or more than 75% (value≥75%))
8 |  | Cc1cc(NCC(=O)NCc2ccc3c(c2)CN(C2CCC(=O)NC2=O)C3=O)ccc1N1CCCC1 (stereo not shown) [Compound 21, N-((2-(2,6-dioxopiperidin-3-yl)-1-oxoisoindolin-5-yl)methyl)-2-((3-methyl-4-(pyrrolidin-1-yl)phenyl)amino)acetamide] | < 30 | C (a % degradation value of equal to or more than 50% and less than 75% (50%≤value<75%)) | 1 to 2 | A (a % degradation value of less than 25% (value<25%)) | 30 to 50 |  | < 40 | C (a % degradation value of equal to or more than 50% and less than 75% (50%≤value<75%))

Source: patent US11400084B2 (BioTheryX, Inc., priority 2018, dated 2022)
